Data on one molecule can be found in patent US20120220658A1, “Method for Treating Sepsis or Septic Shock” (University of Medicine and Dentistry of New Jersey, priority 2009, published 2012).

“Also recorded” adds a separate entry of the source.

One test deals with IL-6. Description: Plasma IL-6 level after CLP. It is filed as in vivo, male Sprague-Dawley rats. As to conditions: 40 μg/kg i.p. 5 h after CLP; 48 hours after CLP; vs saline vehicle. How it is done:
(§1) Surgery. Cecal ligation and perforation (CLP) was performed on male Sprague-Dawley rats (250-350 g) according to known methods (Chaudry, et al. (1979) Surgery 85:205-21). The CLP model of sepsis is an established, clinically relevant model of sepsis (Rittirsch et al., (2009) Nature Protocol 4(1):31-36). Animals were fasted overnight before surgery. On the day of surgery, rats were anesthetized with Isofluorane (+oxygen). A 2-cm-long midline incision was made in the abdomen to expose the cecum. Fecal matter was massaged into the cecum. The distal two-thirds of the cecum was ligated with 4.0 surgical silk. Using an 18-gauge needle, the cecum was punctured twice. Some fecal matter was massaged out of the cecum through these holes. The cecum was placed back into the abdomen, which was then closed. Saline (2 ml/100 g; s.c.) was injected to replace any fluids lost during surgery. Five hours after surgery, the rats were given either LXA4 (40 μg/kg rat; i.p.) or saline vehicle. This concentration of LXA4 was derived from published in vivo work in rodents (Bannenberg et al., (2004) Br. J. Pharmacol. 143:43-52). At the end of 48 hours, rats were anesthetized with pentobarbital (50 mg/kg, i.p.). […]
(§2) Plasma IL-6, MCP-1 and IL-10 Levels. Plasma IL-6, MCP-1 and IL-10 levels were measured using commercially available kits. […]

Test [1] has as its system peritoneal leukocytes of CLP rats. Description: Peritoneal cell count and differential after CLP. It counts as in vivo, male Sprague-Dawley rats. Conditions: 40 μg/kg i.p. 5 h after CLP; 48 hours after CLP; vs CLP rats given saline. How it is done:
Surgery. Cecal ligation and perforation (CLP) was performed on male Sprague-Dawley rats (250-350 g) according to known methods (Chaudry, et al. (1979) Surgery 85:205-21). The CLP model of sepsis is an established, clinically relevant model of sepsis (Rittirsch et al., (2009) Nature Protocol 4(1):31-36). Animals were fasted overnight before surgery. On the day of surgery, rats were anesthetized with Isofluorane (+oxygen). A 2-cm-long midline incision was made in the abdomen to expose the cecum. Fecal matter was massaged into the cecum. The distal two-thirds of the cecum was ligated with 4.0 surgical silk. Using an 18-gauge needle, the cecum was punctured twice. Some fecal matter was massaged out of the cecum through these holes. The cecum was placed back into the abdomen, which was then closed. Saline (2 ml/100 g; s.c.) was injected to replace any fluids lost during surgery. Five hours after surgery, the rats were given either LXA4 (40 μg/kg rat; i.p.) or saline vehicle. This concentration of LXA4 was derived from published in vivo work in rodents (Bannenberg et al., (2004) Br. J. Pharmacol. 143:43-52). At the end of 48 hours, rats were anesthetized with pentobarbital (50 mg/kg, i.p.). A midline incision was made and the peritoneal cavity was lavaged with 20 ml of PBS containing 0.38% Na citrate (as anticoagulant).
Two hundred μl of lavage fluid was taken immediately for measurement of bacterial load. The rest of the fluid was passed through a […] (diameter) nylon mesh to remove debris and then centrifuged at 110×g for 7 minutes at 4° C. The supernatant was removed and stored at −80° C. for further analyses. Forty ml red blood cell lysis buffer was added to the cell pellet for 10 minutes with gentle inversion before being centrifuged again at 110×g (7 minutes; 4° C.). Cells were resuspended in 1 ml PBS.
Peritoneal Cell Differential. Peritoneal cells were counted using an automated hemocytometer (Beckman Coulter Counter; Z4) and then cytospun onto superfrost ++ slides. In order to perform cell differentials, DIFQUIK staining was performed according to manufacturer's instructions. […]

The test system of test [2] is bacterial load in CLP rats. Description: Bacterial load (CFU) in blood and peritoneal lavage fluid after CLP. It counts as in vivo, male Sprague-Dawley rats. As to conditions: 40 μg/kg i.p. 5 h after CLP; 48 hours after CLP; vs saline vehicle. How it is done:
as §1, with “143:43-52).” for “143:43-52). At the end of 48 hours, rats were anesthetized with pentobarbital (50 mg/kg, i.p.).”
Bacterial Load. […] At the end of the incubation period, colony forming units (CFU) were counted.
Bacterial Load. Bacterial load in blood and peritoneal lavage fluid was measured after plating of serially diluted samples on tryptic soy agar plates. […]

Another test concerns IL-10. Briefly: Plasma IL-10 level after CLP. Conditions: 40 μg/kg i.p. 5 h after CLP; 48 hours after CLP; vs saline vehicle. It is filed as in vivo, male Sprague-Dawley rats. How it is done: as §1, §2
Test [3] concerns CLP rats. Description: Survival in cecal ligation and perforation (CLP) model of sepsis, LXA4 i.p. It counts as in vivo, male Sprague-Dawley rats. As to conditions: 40 μg/kg i.p. five hours after CLP surgery; subgroup of rats that lived longer than 48 hours; vs vehicle treated CLP rats. How it is done:
as §1, with “vehicle.” for “vehicle. This concentration of LXA4 was derived from published in vivo work in rodents (Bannenberg et al., (2004) Br. J. Pharmacol. 143:43-52). At the end of 48 hours, rats were anesthetized with pentobarbital (50 mg/kg, i.p.).”
In this study, the effect of LXA4 in the clinically relevant cecal ligation and puncture (CLP) model of sepsis was analyzed. […]
Survival. […] As there was a significant change in the slope of the individual survival curves starting at 48 hours, the effects of LXA4 on systemic inflammatory mediator release, bacterial load and peritoneal leukocyte counts 48 hours after CLP sepsis were analyzed.

For another test, the system named is MCP-1. Description: Plasma MCP-1 level after CLP. It counts as in vivo, male Sprague-Dawley rats. Conditions: 40 μg/kg i.p. 5 h after CLP; 48 hours after CLP; vs saline vehicle. How it is done: as §1, with “143:43-52).” for “143:43-52). At the end of 48 hours, rats were anesthetized with pentobarbital (50 mg/kg, i.p.).”
Plasma IL-6, MCP-1 and IL-10 Levels. Plasma IL-6, MCP-1 and IL-10 levels were measured using commercially available kits.
Plasma MCP-1. […] Accordingly, plasma MCP-1 was measured as another marker of systemic inflammatory response. […]

The test system of test [4] is CLP rats. Description: Survival after CLP-induced sepsis, intravenous LXA4. It counts as in vivo. Conditions: 8 μg/kg i.v., single dose 1 hour after CLP; monitored every 24 hours for 8 days. How it is done: as §1, with “143:43-52).” for “143:43-52). At the end of 48 hours, rats were anesthetized with pentobarbital (50 mg/kg, i.p.).”
To further examine the use of LXA4 in the treatment of sepsis, the effect intravenous LXA4 administration on survival after CLP-induced sepsis was examined. […] Survival was monitored every 24 hours for 8 days (FIG. 7).

Take `CCCCC[C@H](O)/C=C/C=C\C=C\C=C\[C@@H](O)[C@@H](O)CCCC(=O)O` [LXA4, 5S,6R,15S-trihydroxy-7E,9E,11Z,13E-Eicosatetraenoic acid]: in the test with IL-6, the “plasma IL-6 levels” value is listed as “reduced plasma levels of IL-6”. In test [1], the “number of monocytes/macrophages in the peritoneal cavity” value is recorded as “increased the number of monocytes/macrophages”, the “number of neutrophils in the peritoneal cavity” value is given as “without affecting the number of neutrophils; also recorded: number of neutrophils remained similar in both groups” and the “total number of peritoneal cells (leukocytes)” value is recorded as “increased the total number of peritoneal cells; also recorded: increased peritoneal leukocytes further”. Further, in test [2], the “bacterial load in the peritoneal cavity (CFU)” value is on record as “reduced bacterial load in the peritoneal cavity but the reduction did not reach significance” and the “blood bacterial load (CFU)” value is listed as “reduces blood bacterial load; also recorded: substantially reduced blood bacterial load”. In the test with IL-10, the “plasma IL-10 levels” value is recorded as “significantly decreased plasma IL-10 levels”. Moreover, the “survival (Kaplan-Meier, log-rank test)” value in the test on CLP rats [3] is given as “significantly increased survival; also recorded: increased survival rate”. The “plasma MCP-1 levels” value in the test on MCP-1 was “reduced plasma levels of MCP-1; also recorded: significantly reduced plasma MCP-1 levels”. Also, the “survival (Kaplan-Meier, log rank test)” value in the test with CLP rats [4] is given as “significantly increased survival”.
